Data taken from ChEMBL document CHEMBL3991601, “The target landscape of clinical kinase drugs” (Science, 2017).
The source made the active and inactive calls.

How the values were obtained:
[1] = target: Tyrosine-protein kinase ABL1 (Homo sapiens, UniProt P00519)
[2] = target: Adenylate kinase 2, mitochondrial (Homo sapiens, UniProt P54819)
[3] = target: Cyclin-dependent kinase 4 (Homo sapiens, UniProt P11802)
[4] = target: Citron Rho-interacting kinase (Homo sapiens, UniProt O14578)
Ephrin type-A receptor 2 = Ephrin type-A receptor 2 (Homo sapiens, UniProt P29317)
Glycine--tRNA ligase = target: T1, Glycine--tRNA ligase (Homo sapiens, UniProt P41250)
T1 sequence (P41250 whole entry): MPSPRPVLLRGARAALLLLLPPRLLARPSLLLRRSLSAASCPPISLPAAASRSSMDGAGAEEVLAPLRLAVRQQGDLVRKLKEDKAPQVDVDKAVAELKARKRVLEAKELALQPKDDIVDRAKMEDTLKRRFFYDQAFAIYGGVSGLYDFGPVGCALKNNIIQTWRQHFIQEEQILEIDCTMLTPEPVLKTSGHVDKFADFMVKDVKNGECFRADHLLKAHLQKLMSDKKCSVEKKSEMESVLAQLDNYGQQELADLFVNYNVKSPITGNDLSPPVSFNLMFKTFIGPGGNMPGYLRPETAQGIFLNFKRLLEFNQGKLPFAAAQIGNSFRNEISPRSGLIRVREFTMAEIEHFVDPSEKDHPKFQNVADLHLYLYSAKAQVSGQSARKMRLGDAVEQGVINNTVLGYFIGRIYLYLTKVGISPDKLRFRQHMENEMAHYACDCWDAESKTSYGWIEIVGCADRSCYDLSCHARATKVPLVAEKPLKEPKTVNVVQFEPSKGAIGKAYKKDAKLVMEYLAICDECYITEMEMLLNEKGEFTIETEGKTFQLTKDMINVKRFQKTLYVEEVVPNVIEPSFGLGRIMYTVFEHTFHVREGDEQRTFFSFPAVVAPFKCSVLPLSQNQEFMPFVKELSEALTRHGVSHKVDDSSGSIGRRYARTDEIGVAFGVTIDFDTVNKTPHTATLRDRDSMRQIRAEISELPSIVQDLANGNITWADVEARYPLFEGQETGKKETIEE

[5] = target: Myosin light chain kinase, smooth muscle (Homo sapiens, UniProt Q15746)
Chain of Myosin light chain kinase, smooth muscle (Q15746 whole entry): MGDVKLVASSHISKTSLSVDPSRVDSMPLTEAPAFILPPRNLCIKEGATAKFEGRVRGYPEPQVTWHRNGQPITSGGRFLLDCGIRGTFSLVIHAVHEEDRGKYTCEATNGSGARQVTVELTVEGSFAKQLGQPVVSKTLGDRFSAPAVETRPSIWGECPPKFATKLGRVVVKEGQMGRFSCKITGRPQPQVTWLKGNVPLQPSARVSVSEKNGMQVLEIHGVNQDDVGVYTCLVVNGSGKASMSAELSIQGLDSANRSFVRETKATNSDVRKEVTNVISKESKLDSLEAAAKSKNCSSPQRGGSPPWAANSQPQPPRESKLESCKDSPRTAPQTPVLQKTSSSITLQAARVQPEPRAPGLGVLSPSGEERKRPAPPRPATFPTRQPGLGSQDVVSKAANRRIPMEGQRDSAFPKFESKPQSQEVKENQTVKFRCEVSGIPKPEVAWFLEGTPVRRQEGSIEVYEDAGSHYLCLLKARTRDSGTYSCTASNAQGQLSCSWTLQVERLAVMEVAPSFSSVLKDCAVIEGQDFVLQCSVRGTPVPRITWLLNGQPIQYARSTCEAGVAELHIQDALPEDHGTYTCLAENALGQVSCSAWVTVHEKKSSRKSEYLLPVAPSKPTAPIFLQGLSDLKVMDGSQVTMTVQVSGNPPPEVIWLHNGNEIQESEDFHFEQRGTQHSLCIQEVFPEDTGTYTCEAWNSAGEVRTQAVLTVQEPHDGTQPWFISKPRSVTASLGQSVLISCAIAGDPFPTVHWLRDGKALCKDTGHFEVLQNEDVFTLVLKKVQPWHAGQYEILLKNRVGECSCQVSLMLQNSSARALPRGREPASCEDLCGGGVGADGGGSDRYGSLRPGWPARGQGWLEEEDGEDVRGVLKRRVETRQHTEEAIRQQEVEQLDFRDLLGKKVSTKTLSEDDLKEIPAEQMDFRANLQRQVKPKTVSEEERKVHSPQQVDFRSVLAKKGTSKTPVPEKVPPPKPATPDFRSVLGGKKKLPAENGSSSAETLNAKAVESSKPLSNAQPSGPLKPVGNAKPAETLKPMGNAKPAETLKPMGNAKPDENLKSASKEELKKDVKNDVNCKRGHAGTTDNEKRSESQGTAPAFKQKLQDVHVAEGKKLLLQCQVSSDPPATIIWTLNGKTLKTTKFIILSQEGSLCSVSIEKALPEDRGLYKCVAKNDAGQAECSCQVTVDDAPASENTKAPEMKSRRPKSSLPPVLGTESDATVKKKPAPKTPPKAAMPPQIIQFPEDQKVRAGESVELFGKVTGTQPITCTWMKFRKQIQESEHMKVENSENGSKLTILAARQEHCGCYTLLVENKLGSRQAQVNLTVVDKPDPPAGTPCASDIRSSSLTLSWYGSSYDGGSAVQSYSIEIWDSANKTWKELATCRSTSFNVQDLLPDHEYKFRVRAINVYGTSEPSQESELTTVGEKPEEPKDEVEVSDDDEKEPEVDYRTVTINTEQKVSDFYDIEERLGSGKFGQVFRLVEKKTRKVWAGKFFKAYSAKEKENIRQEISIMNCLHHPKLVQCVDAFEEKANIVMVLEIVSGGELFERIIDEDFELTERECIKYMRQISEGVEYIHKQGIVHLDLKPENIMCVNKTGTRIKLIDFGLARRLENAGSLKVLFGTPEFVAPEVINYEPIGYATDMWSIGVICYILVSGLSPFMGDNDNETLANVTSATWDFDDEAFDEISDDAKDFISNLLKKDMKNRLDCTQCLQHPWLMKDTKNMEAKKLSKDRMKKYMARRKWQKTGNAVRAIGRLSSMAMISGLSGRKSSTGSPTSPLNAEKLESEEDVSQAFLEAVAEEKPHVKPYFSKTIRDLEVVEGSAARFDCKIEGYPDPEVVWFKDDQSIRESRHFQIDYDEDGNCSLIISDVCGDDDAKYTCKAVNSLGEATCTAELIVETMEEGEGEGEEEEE

[6] = target: Serine/threonine-protein kinase PAK 2 (Homo sapiens, UniProt Q13177)
Chain of Serine/threonine-protein kinase PAK 2 (Q13177 whole entry): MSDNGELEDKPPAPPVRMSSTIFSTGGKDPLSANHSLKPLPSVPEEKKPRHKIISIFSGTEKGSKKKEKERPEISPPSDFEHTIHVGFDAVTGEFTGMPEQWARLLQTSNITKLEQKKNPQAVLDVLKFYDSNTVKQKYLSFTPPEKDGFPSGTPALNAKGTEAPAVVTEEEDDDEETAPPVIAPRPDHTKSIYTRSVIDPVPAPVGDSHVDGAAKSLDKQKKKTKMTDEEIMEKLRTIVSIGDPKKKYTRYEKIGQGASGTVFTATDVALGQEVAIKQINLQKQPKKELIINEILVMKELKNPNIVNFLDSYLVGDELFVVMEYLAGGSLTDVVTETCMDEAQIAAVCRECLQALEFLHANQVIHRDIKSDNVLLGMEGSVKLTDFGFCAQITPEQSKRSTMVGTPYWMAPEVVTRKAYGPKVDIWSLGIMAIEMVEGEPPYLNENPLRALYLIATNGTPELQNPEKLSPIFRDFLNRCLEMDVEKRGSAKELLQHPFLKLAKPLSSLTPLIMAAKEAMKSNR

Pyridoxal kinase = target: T2, Pyridoxal kinase (Homo sapiens, UniProt O00764)
T2 sequence (O00764 whole entry): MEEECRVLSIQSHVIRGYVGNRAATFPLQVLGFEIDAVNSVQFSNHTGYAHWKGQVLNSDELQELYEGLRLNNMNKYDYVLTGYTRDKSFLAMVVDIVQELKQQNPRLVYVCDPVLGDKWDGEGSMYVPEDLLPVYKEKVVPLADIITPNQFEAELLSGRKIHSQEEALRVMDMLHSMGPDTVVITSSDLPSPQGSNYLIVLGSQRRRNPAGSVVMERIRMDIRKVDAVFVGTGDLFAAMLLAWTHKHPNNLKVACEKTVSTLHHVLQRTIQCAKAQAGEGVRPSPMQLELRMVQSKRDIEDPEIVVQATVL

[7] = target: Serine/threonine-protein kinase pim-1 (Homo sapiens, UniProt P11309)
Chain of Serine/threonine-protein kinase pim-1 (P11309 whole entry): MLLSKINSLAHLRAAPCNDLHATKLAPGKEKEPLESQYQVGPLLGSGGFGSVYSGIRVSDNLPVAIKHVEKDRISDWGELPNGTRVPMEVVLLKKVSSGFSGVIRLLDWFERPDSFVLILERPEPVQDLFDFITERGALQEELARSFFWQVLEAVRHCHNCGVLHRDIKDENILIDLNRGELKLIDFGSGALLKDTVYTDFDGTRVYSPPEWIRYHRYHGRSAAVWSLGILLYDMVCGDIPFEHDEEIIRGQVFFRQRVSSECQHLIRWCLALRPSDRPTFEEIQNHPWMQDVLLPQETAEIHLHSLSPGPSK

[8] = target: Rho-associated protein kinase 2 (Homo sapiens, UniProt O75116)
ADP/ATP translocase 3 = target: T3, ADP/ATP translocase 3 (Homo sapiens, UniProt P12236)
T3 sequence (P12236 whole entry): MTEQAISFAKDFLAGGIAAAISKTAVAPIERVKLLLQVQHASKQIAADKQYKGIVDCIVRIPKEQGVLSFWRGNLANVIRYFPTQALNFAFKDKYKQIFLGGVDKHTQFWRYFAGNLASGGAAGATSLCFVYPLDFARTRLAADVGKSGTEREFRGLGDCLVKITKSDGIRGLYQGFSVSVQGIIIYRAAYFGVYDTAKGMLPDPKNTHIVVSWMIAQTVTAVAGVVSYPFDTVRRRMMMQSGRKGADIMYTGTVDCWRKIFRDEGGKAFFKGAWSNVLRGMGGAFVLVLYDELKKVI

[9] = target: T4, Serine/threonine-protein kinase ICK (Homo sapiens, UniProt Q9UPZ9)
T4 sequence (Q9UPZ9 whole entry): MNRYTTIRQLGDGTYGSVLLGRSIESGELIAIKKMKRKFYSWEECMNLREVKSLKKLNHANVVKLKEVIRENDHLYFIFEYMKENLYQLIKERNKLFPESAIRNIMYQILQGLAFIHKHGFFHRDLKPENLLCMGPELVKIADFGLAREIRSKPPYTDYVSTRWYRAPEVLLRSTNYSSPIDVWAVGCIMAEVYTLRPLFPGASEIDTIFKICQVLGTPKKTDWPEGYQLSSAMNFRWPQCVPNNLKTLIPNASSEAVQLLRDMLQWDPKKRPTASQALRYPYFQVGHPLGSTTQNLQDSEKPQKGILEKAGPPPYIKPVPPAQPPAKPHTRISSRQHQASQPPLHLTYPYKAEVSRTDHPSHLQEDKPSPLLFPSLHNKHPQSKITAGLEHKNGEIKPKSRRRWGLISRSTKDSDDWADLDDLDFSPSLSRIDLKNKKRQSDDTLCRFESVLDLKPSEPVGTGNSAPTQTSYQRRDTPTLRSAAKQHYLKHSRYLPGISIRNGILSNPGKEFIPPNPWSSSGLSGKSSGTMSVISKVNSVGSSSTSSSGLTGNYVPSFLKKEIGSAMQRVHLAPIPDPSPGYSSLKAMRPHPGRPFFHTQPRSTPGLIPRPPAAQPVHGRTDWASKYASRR
Also: in the data inactive means no Kd found up to 30 µM.

Chain of Citron Rho-interacting kinase (O14578 whole entry): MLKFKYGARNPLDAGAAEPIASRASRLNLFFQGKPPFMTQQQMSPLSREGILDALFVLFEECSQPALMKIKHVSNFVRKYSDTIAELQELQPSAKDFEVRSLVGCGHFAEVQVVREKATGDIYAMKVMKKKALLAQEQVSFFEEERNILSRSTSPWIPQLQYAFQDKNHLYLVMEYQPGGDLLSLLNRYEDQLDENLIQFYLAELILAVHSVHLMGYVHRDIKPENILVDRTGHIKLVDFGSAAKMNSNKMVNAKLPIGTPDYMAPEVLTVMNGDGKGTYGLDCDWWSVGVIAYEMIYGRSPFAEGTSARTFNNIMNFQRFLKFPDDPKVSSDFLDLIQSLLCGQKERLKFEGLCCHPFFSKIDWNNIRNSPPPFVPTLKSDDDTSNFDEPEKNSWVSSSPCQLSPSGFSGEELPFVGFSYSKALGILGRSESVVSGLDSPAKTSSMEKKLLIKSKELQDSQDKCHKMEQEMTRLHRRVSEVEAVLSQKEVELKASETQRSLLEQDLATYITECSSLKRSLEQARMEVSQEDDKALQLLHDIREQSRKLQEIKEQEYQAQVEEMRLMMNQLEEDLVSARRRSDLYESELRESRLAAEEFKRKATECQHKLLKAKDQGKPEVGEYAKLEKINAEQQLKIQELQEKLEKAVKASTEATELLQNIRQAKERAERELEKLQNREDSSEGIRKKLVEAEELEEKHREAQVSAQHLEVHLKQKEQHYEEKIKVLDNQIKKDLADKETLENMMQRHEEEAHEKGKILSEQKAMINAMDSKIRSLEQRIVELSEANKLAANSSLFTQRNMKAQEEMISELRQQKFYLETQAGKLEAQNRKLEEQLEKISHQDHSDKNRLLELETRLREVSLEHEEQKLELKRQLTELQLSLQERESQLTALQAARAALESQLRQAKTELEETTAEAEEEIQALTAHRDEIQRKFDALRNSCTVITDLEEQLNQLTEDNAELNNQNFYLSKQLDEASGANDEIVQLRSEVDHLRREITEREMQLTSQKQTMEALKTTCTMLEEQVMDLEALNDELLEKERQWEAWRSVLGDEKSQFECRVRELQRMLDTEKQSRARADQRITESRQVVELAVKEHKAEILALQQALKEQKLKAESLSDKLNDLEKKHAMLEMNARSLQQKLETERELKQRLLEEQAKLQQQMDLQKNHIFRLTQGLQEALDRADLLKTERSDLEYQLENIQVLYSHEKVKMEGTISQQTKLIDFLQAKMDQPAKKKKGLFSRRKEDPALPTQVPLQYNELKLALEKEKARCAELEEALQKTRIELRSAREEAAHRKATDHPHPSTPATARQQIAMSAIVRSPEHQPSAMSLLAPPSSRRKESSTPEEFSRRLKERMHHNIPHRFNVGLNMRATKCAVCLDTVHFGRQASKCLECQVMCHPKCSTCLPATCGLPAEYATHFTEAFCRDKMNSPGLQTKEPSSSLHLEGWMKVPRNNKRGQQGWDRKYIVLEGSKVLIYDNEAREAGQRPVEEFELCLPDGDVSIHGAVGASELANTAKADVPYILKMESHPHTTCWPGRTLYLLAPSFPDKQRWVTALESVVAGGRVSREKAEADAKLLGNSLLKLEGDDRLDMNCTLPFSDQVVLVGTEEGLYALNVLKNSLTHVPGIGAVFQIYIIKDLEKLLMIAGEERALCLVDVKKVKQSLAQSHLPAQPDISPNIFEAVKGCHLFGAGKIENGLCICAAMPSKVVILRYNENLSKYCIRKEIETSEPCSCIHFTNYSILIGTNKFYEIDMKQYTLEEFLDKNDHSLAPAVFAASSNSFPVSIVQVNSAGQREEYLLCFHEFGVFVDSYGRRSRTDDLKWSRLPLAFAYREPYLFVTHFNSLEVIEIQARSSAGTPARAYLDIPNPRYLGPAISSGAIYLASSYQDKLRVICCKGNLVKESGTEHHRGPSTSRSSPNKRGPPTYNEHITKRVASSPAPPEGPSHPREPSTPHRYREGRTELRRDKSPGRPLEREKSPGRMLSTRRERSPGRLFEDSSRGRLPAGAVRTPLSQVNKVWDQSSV
Chain of Cyclin-dependent kinase 4 (P11802 whole entry): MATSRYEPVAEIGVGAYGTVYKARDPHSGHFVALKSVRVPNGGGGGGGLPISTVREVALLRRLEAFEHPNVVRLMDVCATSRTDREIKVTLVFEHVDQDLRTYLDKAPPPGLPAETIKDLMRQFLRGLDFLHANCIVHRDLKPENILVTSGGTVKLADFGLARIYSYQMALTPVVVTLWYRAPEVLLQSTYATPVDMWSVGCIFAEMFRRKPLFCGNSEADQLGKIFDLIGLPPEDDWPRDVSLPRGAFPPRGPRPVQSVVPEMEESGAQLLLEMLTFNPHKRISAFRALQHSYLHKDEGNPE

Compound | Kd [1] | Kd [2] | Kd [3] | Kd [4] | Kd (Ephrin type-A receptor 2) | Kd (Glycine--tRNA ligase) | Kd [5] | Kd [6] | Kd (Pyridoxal kinase) | Kd [7] | Kd [8] | Kd (ADP/ATP translocase 3) | Kd [9]
C[C@@H](Oc1cc(C(=O)Nc2ccc(C(=O)N3CCN(C)CC3)cc2)nnc1N)c1c(Cl)ccc(F)c1Cl | > 30 µM (inactive) | > 30 µM (inactive) | > 30 µM (inactive) | > 30 µM (inactive) | > 30 µM (inactive) | > 30 µM (inactive) | > 30 µM (inactive) | > 30 µM (inactive) | > 30 µM (inactive) | > 30 µM (inactive) | > 30 µM (inactive) | > 30 µM (inactive) | –
C[C@H]1CNCCCN1S(=O)(=O)c1cccc2cncc(F)c12 | > 30 µM (inactive) | > 30 µM (inactive) | > 30 µM (inactive) | > 30 µM (inactive) | > 30 µM (inactive) | > 30 µM (inactive) | > 30 µM (inactive) | – | > 30 µM (inactive) | > 30 µM (inactive) | 0.083 µM (active) | > 30 µM (inactive) | > 30 µM (inactive)
CCNC(=O)C#Cc1ccc2c(c1)NC(=O)/C2=C(\Nc1ccc(CN(C)C)cc1)c1ccccc1 | 1.59 µM (active) | > 30 µM (inactive) | > 30 µM (inactive) | > 30 µM (inactive) | > 30 µM (inactive) | > 30 µM (inactive) | > 30 µM (inactive) | > 30 µM (inactive) | > 30 µM (inactive) | > 30 µM (inactive) | > 30 µM (inactive) | > 30 µM (inactive) | –
C=CC(=O)N1CCC[C@H](n2c(=O)n(-c3ccc(Oc4ccccc4)cc3)c3c(N)ncnc32)C1 | > 30 µM (inactive) | > 30 µM (inactive) | > 30 µM (inactive) | > 30 µM (inactive) | > 30 µM (inactive) | > 30 µM (inactive) | > 30 µM (inactive) | – | > 30 µM (inactive) | > 30 µM (inactive) | > 30 µM (inactive) | > 30 µM (inactive) | > 30 µM (inactive)
NC(=O)Nc1cc(-c2cccc(F)c2)sc1C(=O)N[C@H]1CCCNC1 [AZD-7762] | 0.61 µM (active) | > 30 µM (inactive) | > 30 µM (inactive) | > 30 µM (inactive) | > 30 µM (inactive) | > 30 µM (inactive) | > 30 µM (inactive) | – | > 30 µM (inactive) | > 30 µM (inactive) | > 30 µM (inactive) | > 30 µM (inactive) | > 30 µM (inactive)
Cc1nc2cc(-n3ncc(C(=O)c4cc5ccccc5[nH]4)c3N)ccc2[nH]1 [FGFR INHIBITOR DEBIO 1347] | > 30 µM (inactive) | > 30 µM (inactive) | > 30 µM (inactive) | > 30 µM (inactive) | > 30 µM (inactive) | > 30 µM (inactive) | > 30 µM (inactive) | > 30 µM (inactive) | 2.11 µM (active) | > 30 µM (inactive) | > 30 µM (inactive) | > 30 µM (inactive) | –
O=C(Nc1cc(C(F)(F)F)cc(C(F)(F)F)c1)c1cc(Cl)ccc1O [IMD-0354] | > 30 µM (inactive) | > 30 µM (inactive) | > 30 µM (inactive) | > 30 µM (inactive) | > 30 µM (inactive) | > 30 µM (inactive) | 3.22 µM | > 30 µM (inactive) | > 30 µM (inactive) | – | > 30 µM (inactive) | > 30 µM (inactive) | > 30 µM (inactive)
COc1ncc(-c2ccc3nccc(-c4ccnnc4)c3c2)cc1NS(=O)(=O)c1ccc(F)cc1F [OMIPALISIB] | > 30 µM (inactive) | > 30 µM (inactive) | > 30 µM (inactive) | > 30 µM (inactive) | > 30 µM (inactive) | > 30 µM (inactive) | > 30 µM (inactive) | > 30 µM (inactive) | > 30 µM (inactive) | – | > 30 µM (inactive) | > 30 µM (inactive) | > 30 µM (inactive)
